These are literature values, as cited in US9072714B2, “Fatty acids for use as a medicament” (Lipid Pharmaceuticals ehf., priority 2008, dated 2015).

For this series the following is noted: laxative, by class and site of action.

Take `CCCCC(CC)COC(=O)CC(C(=O)OCC(CC)CCCC)S(=O)(=O)O` (centres unmarked) [Docusate]: the Onset of action is 12 to 72 h.

Take `O=C1OC(c2ccc(O)cc2)(c2ccc(O)cc2)c2ccccc21` [Phenolphthalein]: the Onset of action was 6 to 8 h.
